The target of one test is T1, HDM2 (Homo sapiens, UniProt Q00987).
T1 construct: Thioredoxin (N); made in house; host or cells: E. coli strain BL21(DE3)Rosetta
T1 sequence (Q00987 17-125): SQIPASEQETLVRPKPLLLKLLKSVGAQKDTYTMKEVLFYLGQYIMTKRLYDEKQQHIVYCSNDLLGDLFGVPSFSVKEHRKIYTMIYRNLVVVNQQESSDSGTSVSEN
Description: FRET assay (HDM2 inhibition; method not described in this part). The class given is binding. Particulars: Table 1.
What is called IC50 is the concentration needed to halve the response being measured. A lower IC50 goes with greater potency. The compound `Cc1ccc(N(C)C)cc1-c1nc2nc(C(=O)O)nc(N[C@H](C)C3CCC3)c2n1Cc1ccc(C(F)(F)F)cc1` [Example 1.39, 6-{[(1R)-1-cyclobutylethyl]amino}-8-[5-(dimethylamino)-2-methylphenyl]-7-[4-(trifluoromethyl)benzyl]-7H-purine-2-carboxylic acid] registered an IC50 of 58.5 nM. For `C[C@@H](Nc1nc(C(=O)O)nc2nc(-c3ccccn3)n(Cc3ccc(C(F)(F)F)cc3)c12)C1CCC1` [Example 1.16, 6-{[(1R)-1-cyclobutylethyl]amino}-8-pyridin-2-yl-7-[4-(trifluoromethyl)benzyl]-7H-purine-2-carboxylic acid], it took 25.3 nM to reach half-maximal inhibition (IC50). Still for that read-out and setting: under `Cc1ccc(C)c(-c2nc3nc(C(=O)O)nc(N[C@H](C)C4CCC4)c3n2Cc2ccc(C(F)(F)F)cc2)c1` [Example 1.99, 6-{[(1R)-1-cyclobutylethyl]amino}-8-(2,5-dimethylphenyl)-7-[4-(trifluoromethyl)benzyl]-7H-purine-2-carboxylic acid] stands 14.9 nM; under `Cc1ccc(F)cc1-c1nc2nc(C(=O)O)nc(N[C@H](C)C3CCC3)c2n1Cc1ccc(C(F)(F)F)cc1` [Example 1.103, 6-{[(1R)-1-cyclobutylethyl]amino}-8-(5-fluoro-2-methylphenyl)-7-[4-(trifluoromethyl)benzyl]-7H-purine-2-carboxylic acid], 10.8 nM; under `Cc1ccnc(-c2nc3nc(C(=O)O)nc(N[C@H](C)C4CCC4)c3n2Cc2ccc(C(F)(F)F)cc2)c1F` [Example 1.82, 6-{[(1R)-1-cyclobutylethyl]amino}-8-(3-fluoro-4-methylpyridin-2-yl)-7-[4-(trifluoromethyl)benzyl]-7H-purine-2-carboxylic acid], 49 nM.

In turn, `CCOc1ccc(CC)cc1-c1nc2nc(C(=O)O)nc(N[C@H](C)C3CCC3)c2n1Cc1ccc(C(F)(F)F)cc1` [Example 1.32, 6-{[(1R)-1-cyclobutylethyl]amino}-8-(2-ethoxy-5-ethylphenyl)-7-[4-(trifluoromethyl)benzyl] - 7H-purine-2-carboxylic acid] gave a half-inhibitory concentration (IC50) of 23.6 nM.

As for `CCc1ccc(F)c(-c2nc3nc(C(=O)O)nc(N[C@H](C)C4CCC4)c3n2Cc2ccc(C(F)(F)F)cc2)c1` [Example 1.40, 6-{[(1R)-1-cyclobutylethyl]amino}-8-(5-ethyl-2-fluorophenyl)-7-[4-(trifluoromethyl)benzyl]-7H-purine-2-carboxylic acid], the 50% inhibitory concentration (IC50) came to 33.8 nM. Still for that read-out and setting: under `COc1ccc(C)nc1-c1nc2nc(C(=O)O)nc(N[C@H](C)C3CCC3)c2n1Cc1ccc(C(F)(F)F)cc1` [Example 1.23, 6-{[(1R)-1-cyclobutylethyl]amino}-8-(3-methoxy-6-methylpyridin-2-yl)-7-[4-(trifluoromethyl)benzyl]-7H-purine-2-carboxylic acid] stands 13.1 nM; under `CCCc1ccnc(-c2nc3nc(C(=O)O)nc(N[C@H](C)C4CCC4)c3n2Cc2ccc(C(F)(F)F)cc2)c1` [Example 1.68, 6-{[(1R)-1-cyclobutylethyl]amino}-8-(4-propylpyridin-2-yl)-7-[4-(trifluoromethyl)benzyl]-7H-purine-2-carboxylic acid], 5.62 nM.

In turn, `C[C@@H](Nc1nc(C(=O)O)nc2nc(-c3ccc(C(C)(C)C)cc3)n(Cc3ccc(C(F)(F)F)cc3)c12)C1CCC1` [Example 1.114, 8-(4-tert-butylphenyl)-6-{[(1R)-1-cyclobutylethyl]amino}-7-[4-(trifluoromethyl)benzyl]-7H-purine-2-carboxylic acid] came in with an IC50 of 393 nM.

As to `CC(C)c1cccc(-c2nc3nc(C(=O)O)nc(N[C@H](C)C4CCC4)c3n2Cc2ccc(C(F)(F)F)cc2)n1` [Example 1.70, 6-{[(1R)-1-cyclobutylethyl]amino}-8-[6-(1-methylethyl)pyridin-2-yl]-7-[4-(trifluoromethyl)benzyl]-7H-purine-2-carboxylic acid], it took 46.9 nM to reach half-maximal inhibition (IC50). For the compound `CC(C)c1ccnc(-c2nc3nc(C(=O)O)nc(N[C@H](C)C4CCC4)c3n2Cc2ccc(C(F)(F)F)c(F)c2)c1` [Example 1.49, 6-{[(1R)-1-cyclobutylethyl]amino}-7-[3-fluoro-4-(trifluoromethyl)benzyl] - 8-[4-(1-methylethyl)pyridin-2-yl]-7H-purine-2-carboxylic acid], it took 3.52 nM to reach half-maximal inhibition (IC50). In turn, `CCC(C)c1ccnc(-c2nc3nc(C(=O)O)nc(N[C@H](C)C4CCC4)c3n2Cc2ccc(C(F)(F)F)cc2)c1` (single isomer, unassigned) [Example 1.15] came in with a concentration for half-maximal inhibition (IC50) of 3.32 nM.

Compound `COc1cc(-c2nc3nc(C(=O)O)nc(N[C@H](C)C4CCC4)c3n2Cc2ccc(C(F)(F)F)cc2)ccc1Cl` [Example 1.124, 8-(4-chloro-3-methoxyphenyl)-6-{[(1R)-1-cyclobutylethyl]amino}-7-[4-(trifluoromethyl)benzyl]-7H-purine-2-carboxylic acid] gave an IC50 of 26.4 nM.

Still in this test, the particulars now being: Table 2.
`C[C@@H](Nc1nc(C(=O)O)nc2nc(-c3cc(Cl)ccc3Cl)n(Cc3ccc(C(F)(F)F)cc3)c12)C1CCC1` [Example 2.63, 6-{[(1R)-1-cyclobutylethyl]amino}-8-(2,5-dichlorophenyl)-7-[4-(trifluoromethyl)benzyl]-7H-purine-2-carboxylic acid] displayed an IC50 of 10.9 nM. `C[C@@H](Nc1nc(C(=O)O)nc2nc(-c3cccc(N(C)C)c3)n(Cc3ccc(C(F)(F)F)cc3)c12)C1CC1` [Example 2.29, 6-{[(1R)-1-cyclopropylethyl]amino}-8-[3-(dimethylamino)phenyl]-7-[4-(trifluoromethyl)benzyl]-7H-purine-2-carboxylic acid]: half-maximal inhibition (IC50) was put at 105 nM. In turn, `C[C@@H](Nc1nc(C(=O)O)nc2nc(-c3ccncc3)n(Cc3ccc(C(F)(F)F)cc3)c12)C1CCC1` [Example 2.77, 6-{[(1R)-1-cyclobutylethyl]amino}-8-pyridin-4-yl-7-[4-(trifluoromethyl)benzyl]-7H-purine-2-carboxylic acid] came in with a 50% inhibitory concentration (IC50) of 72.6 nM. Same read-out and setting: under `CCOc1ccc(-c2nc3nc(C(=O)O)nc(N[C@H](C)C4CC4)c3n2Cc2ccc(C(F)(F)F)cc2)cn1` [Example 2.72, 6-{[(1R)-1-cyclopropylethyl]amino}-8-(6-ethoxypyridin-3-yl)-7-[4-(trifluoromethyl)benzyl]-7H-purine-2-carboxylic acid] stands 613 nM.

Compound `Cc1cccc(-c2nc3nc(C(=O)O)nc(N[C@H](C)C4CC4)c3n2Cc2ccc(Cl)cc2)c1` [Example 2.6, 7-(4-chlorobenzyl)-6-{[(1R)-1-cyclopropylethyl]amino}-8-(3-methylphenyl)-7H-purine-2-carboxylic acid] displayed an IC50 of 209 nM. The compound `C[C@@H](Nc1nc(C(=O)O)nc2nc(-c3cnc(N(C)C)nc3)n(Cc3ccc(C(F)(F)F)cc3)c12)C1CC1` [Example 2.70, 6-{[(1R)-1-cyclopropylethyl]amino}-8-[2-(dimethylamino)pyrimidin-5-yl]-7-[4-(trifluoromethyl)benzyl]-7H-purine-2-carboxylic acid] yielded a half-maximal inhibitory concentration (IC50) of 1020 nM.

For the compound `Cc1ccc(C)c(-c2nc3nc(C(=O)O)nc(N[C@H](C)C4CC4)c3n2Cc2ccc(Cl)cc2)c1` [Example 2.12, 7-(4-chlorobenzyl)-6-{[(1R)-1-cyclopropylethyl]amino}-8-(2,5-dimethylphenyl)-7H-purine-2-carboxylic acid], the IC50 amounted to 199 nM. `Cc1ccc(-c2nc3nc(C(=O)O)nc(N[C@H](C)C4CC4)c3n2Cc2ccc(C(F)(F)F)cc2)c(C)c1` [Example 2.52, 6-{[(1R)-1-cyclopropylethyl]amino}-8-(2,4-dimethylphenyl)-7-[4-(trifluoromethyl)benzyl]-7H-purine-2-carboxylic acid] displayed a concentration for half-maximal inhibition (IC50) of 309 nM. On the same count and under the same terms, in the case of `C[C@@H](Nc1nc(C(=O)O)nc2nc(-c3ccccc3Cl)n(Cc3ccc(C(F)(F)F)cc3)c12)C1CC1` [Example 2.55, 8-(2-chlorophenyl)-6-{[(1R)-1-cyclopropylethyl]amino}-7-[4-(trifluoromethyl)benzyl]-7H-purine-2-carboxylic acid] it was 98.3 nM; in that of `C[C@@H](Nc1nc(C(=O)O)nc2nc(-c3ccc(C(F)(F)F)cc3)n(Cc3ccc(C(F)(F)F)cc3)c12)C1CC1` [Example 2.20, 6-{[(1R)-1-cyclopropylethyl]amino}-7-[4-(trifluoromethyl)benzyl]-8-[4-(trifluoromethyl)phenyl]-7H-purine-2-carboxylic acid], 1410 nM.

`CC(C)c1cccc(-c2nc3nc(C(=O)O)nc(N[C@H](C)C4CC4)c3n2Cc2ccc(C(F)(F)F)cc2)c1` [Example 2.18, 6-{[(1R)-1-cyclopropylethyl]amino}-8-[3-(1-methylethyl)phenyl]-7-[4-(trifluoromethyl)benzyl]-7H-purine-2-carboxylic acid] showed an IC50 of 123 nM.

The same test, now with this note: Table 4.
In turn, `COCCOc1ccc(C)cc1-c1nc2nc(C(=O)O)nc(N[C@H](C)C3CC3)c2n1Cc1ccc(Cl)cc1` [Example 4.9, (R)-7-(4-chlorobenzyl)-6-((1-cyclopropylethyl)amino)-8-(2-(2-methoxyethoxy)-5-methylphenyl)-7H-purine-2-carboxylic acid] registered an IC50 of 27.3 nM.

Turning to `Cc1ccc(OCCO)c(-c2nc3nc(C(=O)O)nc(N[C@H](C)C4CC4)c3n2Cc2ccc(Cl)cc2)c1` [Example 4.10, (R)-7-(4-chlorobenzyl)-6-((1-cyclopropylethyl)amino)-8-(2-(2-hydroxyethoxy)-5-methylphenyl)-7H-purine-2-carboxylic acid], the IC50 was 238 nM.

Staying with this test, now noted: Table 5.
On to `Cc1cccc(-c2nc3nc(C(=O)O)nc(N[C@H](C)C4CC4)c3n2Cc2ccc(C(F)(F)F)c(F)c2)c1` [Example 5.9, 6-{[(1R)-1-cyclopropylethyl]amino}-7-[3-fluoro-4-(trifluoromethyl)benzyl]-8-(3-methylphenyl)-7H-purine-2-carboxylic acid], for which the IC50 is 119 nM.

The compound `Cc1cccc(-c2nc3nc(C(=O)O)nc(N[C@H](C)C4CCC4)c3n2Cc2ccc(C(F)(F)F)cc2F)c1` [Example 5.17, 6-{[(1R)-1-cyclobutylethyl]amino}-7-[2-fluoro-4-(trifluoromethyl)benzyl]-8-(3-methylphenyl)-7H-purine-2-carboxylic acid] displayed an IC50 of 74.3 nM.
